The values that follow come from patent publication US20240315994A1, “SMALL MOLECULE MODULATORS OF FERROPTOSIS” (ARPEGGIO BIOSCIENCES, INC., priority 2021, published 2024).

The target of one data set is T1, recombinant GPX4 protein (Homo sapiens, UniProt P36969).
T1 construct: purchased Cayman Chemical SO960203
T1 sequence (P36969 1-197): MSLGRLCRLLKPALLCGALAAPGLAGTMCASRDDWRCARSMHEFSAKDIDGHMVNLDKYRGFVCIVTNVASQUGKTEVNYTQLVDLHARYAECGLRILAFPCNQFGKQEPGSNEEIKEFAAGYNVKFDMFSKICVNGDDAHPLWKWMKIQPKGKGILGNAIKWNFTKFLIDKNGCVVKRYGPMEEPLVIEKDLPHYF
Put plainly: GPX4 inhibitor screening assay (Cayman Chemical cat #701880). Format: biochemical. The following applies: 25 μM, one hour incubation; RSL3 without the 14-3-3 adapter protein. Here is the method:
To determine whether the five ferroptosis-inducing compounds (1816, 8216, 3362, 1962, and 0973) inhibit GPX4 enzymatic activity in vitro, we used a commercially available GPX4 inhibitor screening kit (Cayman Chemical cat #701880). This assay measures a compound's ability to prevent cumene hydroperoxide reduction by recombinant GPX4 protein. Briefly, the five ferroptosis-inducing compounds (25 μM) were incubated with recombinant GPX4 protein for one hour before being run in the Cayman Chemicals GPX4 inhibitor screening assay according to manufacturer's recommendations. The assay read out is a change in absorbance between NADPH and NADP. ML162 (25 μM) and RSL3 (25 μM) were used as positive control compounds.
An enzymatic assay that measures the reduction of […] by GPX4 was used to test the ability of compounds 8216, 6666, 8147, and 3793 to inhibit the activity of GPX4. The enzymatic assay was performed using a commercially available kit (Cayman cat #701880). The compounds were tested at 8 concentrations in duplicate with the compound being diluted following manufacturer's instructions. The enzymatic reaction was allowed to continue for 1 hour prior to reading out the kinetic shift in absorbance that occurs as result of GPX4 […].

The subject of data set [1] is HMOX1 expression in HT-1080 fibrosarcoma cells. Put plainly: HMOX1 induction by RT-qPCR in HT-1080 cells. The format is cell-based. The protocol:
We tested several of our ferroptosis-inducing compounds for their ability to rapidly induce HMOX1 by RT-qPCR. Briefly, HT-1080 fibrosarcoma cells were treated with either 10 µM or 5 µM of compound RSL3, 8216, 1962, 1816, or 3362 for four hours. RNA was isolated and reverse transcribed and HMOX1 expression quantified by qPCR. Each sample was normalized to an ACTB housekeeping gene control and fold change was calculated relative to a DMSO control.
We tested several of the ferroptosis-inducing compounds for their ability to rapidly induce expression of HMOX1. Briefly, HT-1080 fibrosarcoma cells were plated in 6-well dishes 24 hours prior to treatment with 5 μM of 8147, 6047, 3793, Rsl3, 6666 or 8216 with and without the addition of ferrostatin-1 to the media. Cells were harvested from the plate after 4 hours of compound treatment by adding Trizol reagent directly to the plate to lyse the cells and preserve the RNA. RNA was isolated using the Direct-zol 96-well RNA kit (Zymo cat #R2054). Subsequently purity and quantity of RNA in the samples were measured using a Nanodrop (Thermo Fisher cat #ND-ONE-W). RNA samples were normalized to 2 μg and reverse transcribed to cDNA using the Multiscribe High-Capacity Reverse Transcription kit (Thermo Fisher cat #4368814) following manufacturer's instructions. Quantitative real time PCR was carried out in triplicate using SYBR Select Master Mix (Thermo Fisher cat #4472903) following manufacturer's instructions with primers designed against HMOX1 and ActB from IDT. HMOX1 expression levels were normalized to ActB for each sample then fold change was determined against the vehicle control, DMSO.

Data set [2] has as its system HT-1080 fibrosarcoma cells. Put plainly: HT-1080 single-concentration cell viability screen (Cell Titer Glo). Format: cell-based. The following applies: 10 μM compound, 48 hours, duplicate, fraction of control. From the text: To identify potential covalent inhibitors of GPX4, we screened a panel of 294 diverse small molecules from the Enamine covalent inhibitor library (Catalog No. CSL-10480-0-Z-10, Enamine, Monmouth, NJ). Each compound contains either a chloroacetamide or acrylamide moiety theoretically capable of forming a covalent bond with a selenocysteine. The small molecule compounds were selected for a diversity of backbone structures. The screening protocol used the cell viability assay Cell Titer Glo® (available from Promega, Madison, WI). Cell Titer Glo® is a luminescent cell viability that determines the number of viable cells in culture by quantifying ATP, which indicates the presence of metabolically active cells. Briefly, HT-1080 fibrosarcoma cells were plated 24 hours prior to treatment with 10 µM of each compound in the screening panel. Cell Titer Glo® was used to read out cell viability after 48 hours of compound exposure. Data was collected in duplicate.
To determine whether similar molecules could offer other starting points for a medicinal chemistry campaign, we screened 95 additional compounds that contain a similar base structure to that of 8216. Briefly, HT-1080 fibrosarcoma cells were treated with 10 µM of a compound for 48 hours and cell viability was measured by Cell Titer Glo®. Data was collected in duplicate. […]
In general terms: In ATP-based viability assays light output follows the ATP content of the culture.

Data set [3] deals with HMOX1 gene transcription in IMR90 lung fibroblast cells. Put plainly: PRO-seq transcriptional response (HMOX1) in IMR90 cells. Format: cell-based. The following applies: one hour, RSL3 1 μM, ML162 1 μM, erastin 10 μM. From the text: Expression of heme oxygenase 1 (HMOX1) mRNA may be used as a molecular response biomarker for induction of ferroptosis by direct inhibition of GPX4. To distinguish the transcriptional responses elicited by direct versus indirect inhibitors of GPX4, we profiled two direct GPX4 inhibitors, RSL3 and ML162, as well as one system Xc inhibitor, erastin, by Precision Run On followed by sequencing (PRO-seq) in IMR90 lung fibroblast cells. Briefly, IMR90 lung fibroblasts cells (a ferroptosis sensitive cell line) were treated with GPX inhibitors (RSL3 1 μM, ML162 1 μM) or system Xc inhibitor (erastin 10 µM) for one hour and samples were subjected to PRO-seq.

`COC(=O)c1ccc([C@@H]2c3[nH]c4ccccc4c3C[C@@H](C(=O)OC)N2C(=O)CCl)cc1` [RSL3, reference compound]: on recombinant GPX4 protein, the “reduction in GPX4 enzymatic activity” value is “about 55%”. For the same compound, in data set [1] (5 μM, 4 hours, with and without ferrostatin-1), the “HMOX1 upregulation and rescue by ferrostatin-1 (RT-qPCR)” value is reported as “upregulation of HMOX1 which was rescued by the addition of ferrostatin-1, to varying degrees”. For the same compound, the “HMOX1 induction (RT-qPCR)” value in data set [1] (10 μM or 5 μM, four hours, normalized to ACTB, relative to DMSO) was “induces HMOX1 dose-dependently”. In addition, the “Average relative cell viability” value in data set [2] is on record as 0.00933. In addition, the “HMOX1 transcriptional activation (PRO-seq)” value in data set [3] is “robust transcriptional activation of the HMOX1 gene at one hour”.
